The text below walks through data of US11834392B2, “KDM4B inhibitors for the treatment of inflammatory diseases and disorders” (MUSC FOUNDATION FOR RESEARCH DEVELOPMENT, priority 2019, dated 2023).

The subject of data set [1] is H3K9me3. The data set can be described thus: H3K9me3 staining to confirm KDM4B inhibitory activity. In kind it is cell-based.
For data set [2], the system named is bone marrow derived macrophages (BMDMs). Nature of the data set: In vitro periodontal disease inflammation model (IL-6 ELISA after A.a LPS challenge). Type of data set: cell-based, C57BL/6 mice. Conditions: for immunosuppressive action (pro-inflammatory cytokine response to A.a LPS): murine macrophages, A.a LPS challenge.
The target of data set [3] is T1, KDM4B (Homo sapiens, UniProt O94953).
T1 sequence (O94953 1-1096): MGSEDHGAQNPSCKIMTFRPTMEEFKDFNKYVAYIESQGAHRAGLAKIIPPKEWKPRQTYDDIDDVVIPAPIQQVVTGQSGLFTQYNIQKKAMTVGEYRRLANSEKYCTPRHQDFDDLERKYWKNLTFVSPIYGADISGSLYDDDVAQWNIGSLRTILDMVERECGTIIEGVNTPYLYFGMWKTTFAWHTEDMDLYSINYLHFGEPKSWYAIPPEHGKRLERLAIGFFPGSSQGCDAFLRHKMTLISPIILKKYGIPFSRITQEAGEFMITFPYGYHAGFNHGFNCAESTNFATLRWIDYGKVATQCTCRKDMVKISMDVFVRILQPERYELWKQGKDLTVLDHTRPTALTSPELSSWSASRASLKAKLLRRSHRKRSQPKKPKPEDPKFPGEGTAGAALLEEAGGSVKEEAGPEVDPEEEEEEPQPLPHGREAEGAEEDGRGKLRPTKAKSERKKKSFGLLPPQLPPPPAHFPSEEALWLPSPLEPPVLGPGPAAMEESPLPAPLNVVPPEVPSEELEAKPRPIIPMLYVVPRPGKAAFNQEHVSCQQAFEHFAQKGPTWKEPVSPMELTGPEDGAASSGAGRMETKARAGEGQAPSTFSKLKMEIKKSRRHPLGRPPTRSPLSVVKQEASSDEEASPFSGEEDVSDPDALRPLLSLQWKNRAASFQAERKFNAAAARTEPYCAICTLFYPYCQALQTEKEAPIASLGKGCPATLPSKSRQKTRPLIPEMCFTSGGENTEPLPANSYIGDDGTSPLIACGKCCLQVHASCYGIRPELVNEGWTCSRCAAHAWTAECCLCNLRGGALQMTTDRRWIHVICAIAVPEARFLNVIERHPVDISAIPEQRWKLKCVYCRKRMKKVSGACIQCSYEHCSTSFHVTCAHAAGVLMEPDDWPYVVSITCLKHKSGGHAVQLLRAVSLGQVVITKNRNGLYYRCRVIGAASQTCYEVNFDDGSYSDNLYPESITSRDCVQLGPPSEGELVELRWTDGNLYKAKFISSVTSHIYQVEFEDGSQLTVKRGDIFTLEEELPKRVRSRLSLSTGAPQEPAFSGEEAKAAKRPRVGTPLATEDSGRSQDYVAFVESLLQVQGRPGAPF
The data set can be described thus: KDM4B inhibition. Type of data set: biochemical.

For data set [4], the system named is Primary BMDMs. Nature of the data set: IL-10 expression by qRT-PCR in BMDMs. In kind it is cell-based. To be noted: 50 μM 1 hour pre-treatment, A.a LPS 100 ng/mL, 24 hours. The protocol: Primary BMDMs were isolated and differentiated as previously described and were pre-treated with ML324 at 50 μM for 1 hour followed by A.a LPS (100 ng/mL). […] (FIG. 5D)
The conditions of data set [5]: cited from earlier work.
The target in data set [6] is T2, KDM4E (Homo sapiens, UniProt B2RXH2).
T2 sequence (B2RXH2 1-506): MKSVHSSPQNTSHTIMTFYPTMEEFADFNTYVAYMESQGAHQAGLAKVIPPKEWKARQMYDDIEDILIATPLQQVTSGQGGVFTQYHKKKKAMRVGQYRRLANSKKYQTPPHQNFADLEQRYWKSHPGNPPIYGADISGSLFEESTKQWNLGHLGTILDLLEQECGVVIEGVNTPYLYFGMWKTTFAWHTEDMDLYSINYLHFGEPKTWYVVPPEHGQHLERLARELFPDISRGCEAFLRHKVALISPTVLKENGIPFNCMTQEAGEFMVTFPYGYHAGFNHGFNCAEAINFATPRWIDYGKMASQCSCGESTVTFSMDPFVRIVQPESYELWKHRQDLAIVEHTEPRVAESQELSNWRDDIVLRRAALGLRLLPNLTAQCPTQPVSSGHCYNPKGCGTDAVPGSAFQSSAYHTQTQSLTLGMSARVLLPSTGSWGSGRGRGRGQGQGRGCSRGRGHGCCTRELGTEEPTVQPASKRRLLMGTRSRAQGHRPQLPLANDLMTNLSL
Conditions: in vitro; cited from earlier work.

Data set [7] relates to Primary BMDMs. Nature of the data set: Extracellular flux analysis (seahorse XFe96). Type of data set: cell-based. The protocol: (§1) Primary BMDMs were isolated and differentiated as previously described and were pre-treated with ML324 at 50 uM for 1 hour followed by A.a LPS (100 ng/mL). 24 hours later, extracellular flux was analyzed using a seahorse XFe96 instrument and following metabolic analysis, cells were incubated with phalloidin 488 and DAPI. Representative images were acquired using the Hermes […] system at 10× for morphological analysis. N=4. […] Primary BMDMs were isolated and differentiated as previously described and were pre-treated with ML324 at 50 μM for 1 hour followed by A.a LPS (100 ng/mL). […] (FIG. 5D)

Data set [8] concerns osteoclast progenitors. The data set can be described thus: Aa-LPS-induced osteoclastogenesis. In kind it is cell-based. The text has this: (§2) As such, KDM4B represents a new therapeutic target for treating hyper-inflammatory diseases that result in, for example, bone destruction.
A short description of data set [9]: Solubility. In kind it is physicochemical. Conditions: at effective doses.
In data set [10] the test system is H3K4me. The data set can be described thus: Global H3K4me levels in fluorescence-stained macrophages after Aa-LPS challenge. Type of data set: cell-based.
Description: as §2

For data set [11], the system named is herpes simplex virus. Conditions: mice, high doses; cited from earlier work.
The test system of data set [12] is Primary BMDMs. Nature of the data set: Macrophage morphology / polarization (phalloidin 488 and DAPI staining). In kind it is cell-based. Conditions: 50 μM 1 hour pre-treatment, A.a LPS 100 ng/mL, 24 hours. The protocol:
as §1

For data set [13], the system named is cytomegalovirus. Conditions: mice, high doses; cited from earlier work.

The structures appear in SMILES notation. Entries after “also recorded” stand apart in the source; their conditions may differ.

Turning to `O=C(Nc1ccccc1C(=O)O)c1ccc(-c2ccccc2)cc1` [Compound 12, 2-([1,1′-biphenyl]-4-carboxamido)benzoic acid], in data set [1], the “H3K9me3 expression / staining” value was “concurrent increase in H3K9me3; also recorded: increase in H3K9me3 staining”. The “dose-dependent immunosuppressive response to A.a LPS” value in data set [2] is recorded as “dose-dependent immunosuppressive response; also recorded: dose-dependent immunosuppressive effect”.

For `CN(C)CCCNC(=O)c1ccc(-c2cc(O)c3ncccc3c2)cc1` [ML324], in [3], the IC50 turned out to be 4.9 µM and the “activity toward KDM4B” value is reported as “active”. In data set [4], the “IL-10 expression (mRNA)” value was “significantly higher IL-10 expression”. For the same compound, the cell permeability result in data set [5] is given as “good cell permeability”. Moreover, the “inhibition of KDM4E” value in data set [6] is on record as “known to inhibit”. For the same compound, the “glycolytic activity of LPS treated cells” value in data set [7] (50 μM 1 hour pre-treatment, A.a LPS 100 ng/mL, 24 hours) is listed as “rescued this effect”. Besides, the spare respiratory capacity entry in [7] (LPS with or without ML324, compared to PBS control) is listed as “reduced spare respiratory capacity”. In addition, in [8], the Aa-LPS-induced osteoclastogenesis result is “significant reduction”. Besides, the solubility entry in data set [9] is “highly insoluble at effective doses”. In [10], the “global H3K4me levels following Aa-LPS challenge” value is listed as “prevented by KDM4B inhibition”. Also, the “viral replication of herpes simplex virus” value in [11] is “shown to inhibit viral replication”. The “immunosuppressive action (pro-inflammatory cytokine response to A.a LPS)” value in [2] is on record as “decreases the pro-inflammatory cytokine response”. Moreover, in data set [2] (listed as 1), the “immunosuppressive action (pro-inflammatory cytokine response to A.a LPS)” value is on record as “immunosuppressive action”. Moreover, in [12], the “macrophage morphology / polarization (M1 phenotype)” value is recorded as “alters macrophage polarization; also recorded: able to rescue this effect”. In addition, the “viral replication of cytomegalovirus” value in [13] was “shown to inhibit viral replication”.
